Laboratory results: US20230109708A1, “Cellular Uptake” (Axcess (UK) Ltd, priority 2020, published 2023)
Like-named read-outs stand apart in the source and are kept apart here.

How the values were obtained:
[1] = system: Caco-2 cells; assay: Uptake of FITC-insulin into Caco-2 cells, confocal microscope (Example 1); type: cell-based; details: for uptake of FITC-insulin into cells (photomicrographs): FITC-insulin 100 ug/ml alone or with sodium chenodeoxycholate 1 or 2 mg/ml, 37° C. half an hour
Procedure: The supernatant was then removed, replaced with 0.5 ml of 4% paraformaldehyde solution, and incubated at room temperature for 15 minutes. The paraformaldehyde was then removed, the wells were washed three times with phosphate-buffered saline, and the coverslips then treated with mounting medium and viewed under a confocal microscope. Images are set out in FIG. 1.

[2] = system: Caco-2 cells; assay: FITC-albumin uptake after chlorpromazine preincubation, fluorescence microscope score (Example 4); type: cell-based; parameters: fluorescence score, uptake of FITC-albumin: key to the marks not given beside the values; details: for effect of preincubation with inhibitor on chenodeoxycholate-stimulated uptake of FITC-albumin: preincubation ten minutes, amiloride and nystatin in similar experiments
[3] = system: Caco-2 cells; assay: FITC-albumin uptake with chenodeoxycholate and EDTA, DTPA or EGTA, fluorescence microscope score (Example 9); type: cell-based; details: 30 minutes; for fluorescence score, uptake of FITC-albumin: EDTA, DTPA or EGTA 1 mg/ml where present; for enhancement of uptake over and above that seen with chenodeoxycholate alone: agent added at 1 mg/ml to chenodeoxycholate
[4] = system: Caco-2 cells; assay: FITC-hGH uptake with chenodeoxycholate, cells in suspension, plate reader (Example 13); type: cell-based; details: FITC-hGH 100 ug/ml; chenodeoxycholate at different concentrations; 15 minutes
Procedure: 1 ml of FITC-hGH alone (concentration 100 ug/ml) or FITC-hGH containing chenodeoxycholate at different concentrations were then added.

[5] = system: Caco-2 cells
[6] = system: Caco-2 cells; parameters: key to the marks not given beside the values; details: twenty minutes, PG 2:1 wt:wt where present
[7] = system: Caco-2 cells; details: for enhancement of uptake of the protein (FITC-albumin): chenodeoxycholate 0.5 mg/ml, EDTA or orthophenanthroline 5 mg/ml, alone or in combination
[8] = system: Caco-2 cells; details: chenodeoxycholate and EDTA alone or in combination at 1 mg/ml; 15 minutes; cells in suspension
[9] = system: IEC6 cell line; details: chenodeoxycholate 0.5 mg/ml; different concentrations of EDTA; 15 minutes
[10] = system: Caco-2 cells; assay: Uptake of FITC-albumin or FITC-Casein with chenodeoxycholate, fluorescence microscope score (Example 6); type: cell-based; details: FITC-labelled protein 100 ug/ml with chenodeoxycholate
Excerpt: The experiment was repeated on two separate occasions on different days.

[11] = column Concentration of Chenodeoxycholate 0.5 mg/ml, sample alone, no preincubation
[12] = column Concentration of Chenodeoxycholate 1.0 mg/ml, sample alone, no preincubation
[13] = column Concentration of Chenodeoxycholate 1.5 mg/ml, sample alone, no preincubation

C[C@H](CCC(=O)O)[C@H]1CC[C@H]2[C@@H]3[C@H](O)C[C@@H]4C[C@H](O)CC[C@]4(C)[C@H]3CC[C@]12C [Cheno alone, sodium chenodeoxycholate]
uptake of FITC-insulin into cells (photomicrographs) [1]: uptake is enhanced | fluorescent material in vacuoles within the cells ([1]; FITC-insulin 100 ug/ml, higher concentration of the bile salt (2 mg/ml)): clearly being seen in vacuoles within the cells | fluorescence score, uptake of FITC-albumin ([2]; Cheno 1.0 mg/ml, Chlorpromazine 0 mg/ml): +++ | fluorescence score, uptake of FITC-albumin ([2]; Cheno 1.5 mg/ml, Chlorpromazine 0 mg/ml): ++ | fluorescence score, uptake of FITC-albumin ([3]; Chenodeoxycholate 0.5 mg/ml): + | fluorescence score, uptake of FITC-albumin ([3]; Chenodeoxycholate 1 mg/ml): ++ | uptake of hGH (FITC-hGH) into cells [4]: enhances the uptake of hGH into cells in a dose-dependent manner | fluorescence score, uptake of FITC-albumin [5, 11]: + | fluorescence score, uptake of FITC-albumin [5, 12]: +++ | fluorescence score, uptake of FITC-albumin [5, 13]: +++ | fluorescence score, uptake of FITC-albumin ([6]; Concentration of Bile Salt 1.0 mg/ml): ++ | fluorescence score, uptake of FITC-albumin ([6]; Concentration of Bile Salt 1.5 mg/ml): +++ | fluorescence score, uptake of FITC-albumin ([7]; Chenodeoxycholate 0.5 mg/ml, EDTA or orthophenanthroline 5 mg/ml where present, twenty-five minutes): + | enhancement of uptake of the protein (FITC-albumin) [7]: neither chenodeoxycholate nor EDTA were able to enhance uptake | enhancement of uptake of FITC-albumin [8]: too low to enhance uptake

CN(C)CCCN1c2ccccc2Sc2ccc(Cl)cc21 [Chlorpromazine, chlorpromazine]
fluorescence score, uptake of FITC-albumin ([2]; 5000 ug/mL): ++ | effect of preincubation with inhibitor on chenodeoxycholate-stimulated uptake of FITC-albumin [2]: concentration-dependent inhibition of uptake

O=C(O)CN(CCN(CC(=O)O)CC(=O)O)CCN(CC(=O)O)CC(=O)O [DTPA]
enhancement of uptake over and above that seen with chenodeoxycholate alone [3]: not

O=C(O)CN(CCN(CC(=O)O)CC(=O)O)CC(=O)O [EDTA]
enhancement of uptake of BSA by chenodeoxycholate in IEC6 cells [9]: augmented by EDTA in a dose-dependent fashion

O=C(O)CN(CCOCCOCCN(CC(=O)O)CC(=O)O)CC(=O)O [EGTA]
enhancement of uptake over and above that seen with chenodeoxycholate alone [3]: not

C[C@H](CCC(=O)O)[C@H]1CC[C@H]2[C@@H]3[C@@H](O)C[C@@H]4C[C@H](O)CC[C@]4(C)[C@H]3CC[C@]12C [Urso, sodium ursodeoxycholate]
fluorescence score, uptake of FITC-albumin ([5]; Urso preincubation 0.1 mg/ml, Chenodeoxycholate 0.5 mg/ml): − | fluorescence score, uptake of FITC-albumin ([5]; Urso preincubation 0.1 mg/ml, Chenodeoxycholate 1.0 mg/ml): ++ | fluorescence score, uptake of FITC-albumin ([5]; Urso preincubation 0.1 mg/ml, Chenodeoxycholate 1.5 mg/ml): ++ | fluorescence score, uptake of FITC-albumin ([5]; Urso preincubation 0.5 mg/ml, Chenodeoxycholate 0.5 mg/ml): − | fluorescence score, uptake of FITC-albumin ([5]; Urso preincubation 0.5 mg/ml, Chenodeoxycholate 1.0 mg/ml): + | fluorescence score, uptake of FITC-albumin ([5]; Urso preincubation 0.5 mg/ml, Chenodeoxycholate 1.5 mg/ml): ++ | fluorescence score, uptake of FITC-albumin [5, 11]: − | fluorescence score, uptake of FITC-albumin [5, 12]: − | fluorescence score, uptake of FITC-albumin [5, 13]: − | effect of preincubation on chenodeoxycholate-stimulated uptake of FITC-albumin ([5]; preincubation ten minutes): concentration-dependent inhibition of uptake

N=C(N)NC(=O)c1nc(Cl)c(N)nc1N [amiloride]
effect of preincubation with inhibitor on chenodeoxycholate-stimulated uptake of FITC-albumin [2]: no reduction in uptake

C[C@@H]1[C@H](O)[C@@H](C)/C=C/C=C/CC/C=C/C=C/C=C/C=C/C(O[C@H]2O[C@H](C)[C@@H](O)[C@H](N)[C@@H]2O)CC2O[C@](O)(CC(O)C(O)CCC(O)CC(O)CC(O)CC(=O)O[C@H]1C)CC(O)C2C(=O)O (some centres unmarked) [nystatin]
effect of preincubation with inhibitor on chenodeoxycholate-stimulated uptake of FITC-albumin [2]: no reduction in uptake

c1cnc2c(c1)ccc1cccnc12 [o-phenanthroline]
enhancement of uptake of the protein (FITC-albumin) [7]: does not have this effect

Casein
extent of chenodeoxycholate-mediated uptake of the protein [10]: uptake of a similar extent

insulin: FITC-insulin, fluorescent labelled protein cargo
uptake of FITC-insulin into cells (photomicrographs) [1]: very little uptake
